Data published in US20220409562A1, “Treatment or Prevention of Ischaemic Stroke Reperfusion Injury” (Cambridge Enterprise Limited, priority 2019, published 2022).
Entries after “also recorded” stand apart in the source; their conditions may differ.

Assays:
[1] = system: transient middle cerebral artery occlusion (MCAO) in C57Bl6J mice; test: Transient middle cerebral artery occlusion (MCAO) model, infarct volume and cerebral blood flow; type: in vivo; settings: given i.v. for 20 minutes starting just prior to reperfusion; 45 min ischemia, 2 h reperfusion; vs saline/vehicle control
Source text: Male C57Bl6J mice, 6-8 weeks old, were anesthetized with 3% isoflurane and anaesthesia was maintained on 1.5-2% isoflurane. A Doppler flowmetry probe (Perimed, Sweden) was attached to the skull to continuously monitor the cerebral blood flow. Left common carotid artery (CCA) and left external carotid artery were exposed and permanently ligated. Left […] was clamped temporarily. Next, an incision was made on CCA and a filament with a silicon tip (0.22 mm in diameter, 2-3 mm in length, Doccol, USA) was inserted and guided forward into internal carotid artery until it reached middle cerebral artery (MCA). The occlusion of MCA was confirmed by seeing at least 70% drop in cerebral blood flow. […]
At the end of reperfusion, mice were sacrificed by cervical dislocation; brain was collected and sliced at 2 mm thicknesses and stained with 2% triphenyltetrazolium chloride in saline at 37 C for 10-15 min. […] The healthy tissue area (red-stained) in both hemispheres was measured using ImageJ. The infarct volume % was calculated by first calculating the volume of healthy tissue in each hemisphere (Σarea of each slice×thickness of slice), then by the formula: ((volume of healthy tissue in uninjured hemisphere −volume of healthy tissue in injured hemisphere) ÷volume of healthy tissue in uninjured hemisphere)×100. […]

[2] = system: C2Cl2 mouse myoblast cells; test: Malonate uptake in vitro (LC-MS of cell extracts); type: in vitro ADME; settings: for malonate concentration within the cell: allowing for a cell volume of 260 mg protein/ml
Description: We first explored whether malonate could be taken up by cells in culture. C2Cl2 mouse myoblast cells were plated at 300,000 cells/well and adhered overnight. The next day, cells were treated with either DSM (a—0.25 mM; b—0.25, 1 or 5 mM) or untreated for 0 to 240 min before cooling plates on ice and rapidly washing 4 times with ice-cold PBS and placed on dry ice. Cells were extracted for mass spectrometry with 500 μl extraction buffer (50% methanol, 30% acetonitrile and 20% water) with 1 nmol ^13C-malonate internal standard centrifuged to remove insoluble debris.

[3] = Malonate uptake in vivo (tissue levels after tail vein bolus, LC-MS/MS); design: species or system C57/BL6 mice; settings: 160 mg/kg tail vein bolus, 5 min after injection, normoxic mouse
Description: To see if this uptake also occurred in vivo, we injected disodium malonate into a normoxic mouse by a bolus in the tail vein and measured the malonate levels in tissues 5 min later. C57/BL6 mice were tail vein injected with DSM (160 mg/kg) before cervical dislocation 5 min after the injection, tissues harvested and clamp frozen in liquid nitrogen. For tissue analysis, tissues were weighed and extracted in 25 μl/mg extraction buffer containing internal standard and homogenised in a Precellys 24 homogeniser. Homogenates were centrifuged to remove insoluble debris. Extracts were analysed by LC-MS/MS and the levels of malonate assessed by interpolation of a malonate standard curve.

ischemia = settings: administered prior to and throughout ischemia; cited from earlier work

O=C([O-])CC(=O)[O-].[Na+].[Na+] [DSM, disodium malonate]
necrotic brain infarct volume [1]: decreased | intracellular malonate levels ([2]; 5 mM DSM, after 5 min (FIG. 4b)): ~2 nmol/mg protein | malonate uptake into cells ([2]; 0.25, 1 or 5 mM, 0 to 240 min (FIG. 4b)): both dose and time-dependent | malonate concentration within the cell ([2]; after 5 min incubated with 250 μM): about 50 | malonate concentration within the cell ([2]; after 5 min incubated with 5 mM): ~500 | intracellular malonate levels ([2]; incubated with 250 μM disodium malonate (FIG. 4a)): 0.2-0.4 nmol/mg protein | tissue levels of malonate, brain [3]: uptake | tissue levels of malonate, heart [3]: significant amounts | tissue levels of malonate, kidney [3]: particularly high | tissue levels of malonate, liver [3]: significant amounts

COC(=O)CC(=O)OC [DMM, dimethyl malonate]
necrotic brain infarct volume [1]: no significant difference; also recorded: not effective | protective effect (ischemia): protective
